Experimental data from ChEMBL document CHEMBL1201862, “PubChem BioAssay data set” (2004).
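Results reflect a 48-hour exposure of cells in 96-well plates to compound at five concentrations. Abbreviation: GI50, concentration required for 50% inhibition of growth.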 Calls of active or inactive are those of the source. Cut-off read from the data, not from the text of the source: active = GI50 up to about 1.1 µM and inactive = higher.

Assays:
Experiment in all cases: DTP human tumour cell line panel, 48 h
[1] = system: 786-0
[2] = system: A498
[3] = system: HCT-116
[4] = system: HOP-92
[5] = system: LOX IMVI
[6] = system: M14
[7] = system: MCF7
[8] = system: MDA-MB-435
[9] = system: Malme-3M
[10] = system: NCI-H226
[11] = system: NCI-H23
[12] = system: NCI-H460
[13] = system: OVCAR-5
[14] = system: OVCAR-8
[15] = system: RXF 393
[16] = system: SK-MEL-2
[17] = system: SNB-19
[18] = system: T47D
[19] = system: UACC-62
[20] = system: UO-31

Compound	GI50 [1]	GI50 [2]	GI50 [3]	GI50 [4]	GI50 [5]	GI50 [6]	GI50 [7]	GI50 [8]	GI50 [9]	GI50 [10]	GI50 [11]	GI50 [12]	GI50 [13]	GI50 [14]	GI50 [15]	GI50 [16]	GI50 [17]	GI50 [18]	GI50 [19]	GI50 [20]
Oc1cc2c3c(c1)c1cc4c(cc1c[n+]3CC2)OCO4	1.08 µM (active)	35.4 µM (inactive)	1.55 µM (inactive)	15.2 µM (inactive)	1.63 µM (inactive)	32.1 µM (inactive)	7.69 µM (inactive)	5.5 µM (inactive)	1.16 µM (inactive)	2.69 µM (inactive)	1.9 µM (inactive)	2.43 µM (inactive)	45.6 µM (inactive)	0.748 µM (active)	24.5 µM (inactive)	9.68 µM (inactive)	1.8 µM (inactive)	3.47 µM (inactive)	7.83 µM (inactive)	5.42 µM (inactive)
CC(=O)OCC1C(=O)OCC1C(=O)N1Cc2cc3ccccc3nc2C1 (stereo not drawn)	1.58 µM (inactive)	5.08 µM (inactive)	1.27 µM (inactive)	1.24 µM (inactive)	2.45 µM (inactive)	1.56 µM (inactive)	1.48 µM (inactive)	2.42 µM (inactive)	1.46 µM (inactive)	5.96 µM (inactive)	3.39 µM (inactive)	13.3 µM (inactive)	5.69 µM (inactive)	3.2 µM (inactive)	1.17 µM (inactive)	8.15 µM (inactive)	17.7 µM (inactive)	1.15 µM (inactive)	3.46 µM (inactive)	3.95 µM (inactive)
COc1cccc(NCC(=O)Nn2c(-c3ccccc3)nc3ccccc3c2=O)c1	> 100 µM (inactive)	17.6 µM (inactive)	> 100 µM (inactive)	49.3 µM (inactive)	> 100 µM (inactive)	> 100 µM (inactive)	52.2 µM (inactive)	> 100 µM (inactive)	> 100 µM (inactive)	> 100 µM (inactive)	> 100 µM (inactive)	> 100 µM (inactive)	> 100 µM (inactive)	> 100 µM (inactive)	> 100 µM (inactive)	–	> 100 µM (inactive)	> 100 µM (inactive)	63.4 µM (inactive)	> 100 µM (inactive)
O=c1c(-c2ccc(Cl)cc2)nnc2n(Cc3ccccc3)c3ccccc3n12	14.9 µM (inactive)	23 µM (inactive)	50.5 µM (inactive)	14.7 µM (inactive)	82.6 µM (inactive)	43.4 µM (inactive)	60.7 µM (inactive)	4.28 µM (inactive)	39.8 µM (inactive)	23.7 µM (inactive)	37 µM (inactive)	33.3 µM (inactive)	48.9 µM (inactive)	45.3 µM (inactive)	13.2 µM (inactive)	44.2 µM (inactive)	17.7 µM (inactive)	67.9 µM (inactive)	–	44.4 µM (inactive)
CSc1ncnc2c1ncn2CCC(=O)OC(C)(C)C	> 100 µM (inactive)	> 100 µM (inactive)	> 100 µM (inactive)	> 100 µM (inactive)	> 100 µM (inactive)	> 100 µM (inactive)	> 100 µM (inactive)	> 100 µM (inactive)	> 100 µM (inactive)	> 100 µM (inactive)	> 100 µM (inactive)	> 100 µM (inactive)	> 100 µM (inactive)	> 100 µM (inactive)	> 100 µM (inactive)	–	> 100 µM (inactive)	> 100 µM (inactive)	–	> 100 µM (inactive)
N#CCCC1(CCC#N)CCCCCCCCC(CCC#N)(CCC#N)C(O)C1O (stereo not drawn)	> 100 µM (inactive)	94.6 µM (inactive)	> 100 µM (inactive)	> 100 µM (inactive)	> 100 µM (inactive)	> 100 µM (inactive)	> 100 µM (inactive)	> 100 µM (inactive)	> 100 µM (inactive)	> 100 µM (inactive)	> 100 µM (inactive)	> 100 µM (inactive)	> 100 µM (inactive)	> 100 µM (inactive)	31.9 µM (inactive)	> 100 µM (inactive)	66.7 µM (inactive)	> 100 µM (inactive)	> 100 µM (inactive)	–
COc1ccccc1[C@@H]1CCC2CC[C@@H](c3ccccc3OC)[N+]21Cc1ccccc1 (stereo partly drawn)	1.94 µM (inactive)	2.25 µM (inactive)	1.6 µM (inactive)	0.968 µM (active)	1.69 µM (inactive)	2.24 µM (inactive)	0.581 µM (active)	0.585 µM (active)	2.3 µM (inactive)	1.39 µM (inactive)	0.948 µM (active)	–	2.88 µM (inactive)	1.27 µM (inactive)	2 µM (inactive)	1.51 µM (inactive)	0.982 µM (active)	0.349 µM (active)	–	2.96 µM (inactive)
C=CC[C@@]12CCC(=O)C=C1CCCC2=O	> 100 µM (inactive)	> 100 µM (inactive)	> 100 µM (inactive)	> 100 µM (inactive)	> 100 µM (inactive)	> 100 µM (inactive)	> 100 µM (inactive)	> 100 µM (inactive)	> 100 µM (inactive)	> 100 µM (inactive)	> 100 µM (inactive)	> 100 µM (inactive)	> 100 µM (inactive)	–	> 100 µM (inactive)	> 100 µM (inactive)	> 100 µM (inactive)	> 100 µM (inactive)	> 100 µM (inactive)	> 100 µM (inactive)
CC1CC(N)=C(C#N)C1(C#N)C#N (stereo not drawn)	> 100 µM (inactive)	> 100 µM (inactive)	> 100 µM (inactive)	> 100 µM (inactive)	> 100 µM (inactive)	> 100 µM (inactive)	> 100 µM (inactive)	> 100 µM (inactive)	> 100 µM (inactive)	> 100 µM (inactive)	> 100 µM (inactive)	–	> 100 µM (inactive)	> 100 µM (inactive)	> 100 µM (inactive)	> 100 µM (inactive)	> 100 µM (inactive)	> 100 µM (inactive)	> 100 µM (inactive)	> 100 µM (inactive)
OC(CC(O)(C(F)(F)Cl)C(F)(F)Cl)c1ccccc1 (stereo not drawn)	< 0.001 µM (active)	0.0107 µM (active)	> 10 µM (inactive)	> 10 µM (inactive)	> 10 µM (inactive)	< 0.001 µM (active)	> 10 µM (inactive)	< 0.001 µM (active)	> 10 µM (inactive)	> 10 µM (inactive)	> 10 µM (inactive)	> 10 µM (inactive)	> 10 µM (inactive)	> 10 µM (inactive)	> 10 µM (inactive)	> 10 µM (inactive)	> 10 µM (inactive)	> 10 µM (inactive)	> 10 µM (inactive)	–
O=C(O)C1C2C=CC(O2)C1C(=O)NCc1ccncc1 (stereo not drawn)	> 100 µM (inactive)	> 100 µM (inactive)	> 100 µM (inactive)	> 100 µM (inactive)	> 100 µM (inactive)	> 100 µM (inactive)	> 100 µM (inactive)	> 100 µM (inactive)	> 100 µM (inactive)	> 100 µM (inactive)	–	> 100 µM (inactive)	> 100 µM (inactive)	> 100 µM (inactive)	> 100 µM (inactive)	> 100 µM (inactive)	> 100 µM (inactive)	> 100 µM (inactive)	> 100 µM (inactive)	> 100 µM (inactive)
Cn1cnc2c(sc3nc4ccccc4n32)c1=N	> 100 µM (inactive)	> 100 µM (inactive)	> 100 µM (inactive)	> 100 µM (inactive)	> 100 µM (inactive)	> 100 µM (inactive)	> 100 µM (inactive)	> 100 µM (inactive)	> 100 µM (inactive)	> 100 µM (inactive)	> 100 µM (inactive)	–	> 100 µM (inactive)	41.5 µM (inactive)	> 100 µM (inactive)	> 100 µM (inactive)	> 100 µM (inactive)	> 100 µM (inactive)	> 100 µM (inactive)	> 100 µM (inactive)
O=C1/C(=C\c2cccs2)Oc2ccccc21	77.6 µM (inactive)	42.3 µM (inactive)	60.4 µM (inactive)	35.2 µM (inactive)	51.3 µM (inactive)	84.5 µM (inactive)	28.9 µM (inactive)	98.6 µM (inactive)	–	58.1 µM (inactive)	40.6 µM (inactive)	53.1 µM (inactive)	> 100 µM (inactive)	70.8 µM (inactive)	65.8 µM (inactive)	> 100 µM (inactive)	75.3 µM (inactive)	2.99 µM (inactive)	75.2 µM (inactive)	33 µM (inactive)
CCN1CCC(O)(/C=C/c2ccc(OC)cc2)C(C(=O)/C=C/c2ccc(OC)cc2)C1 (stereo not drawn)	4.03 µM (inactive)	13.3 µM (inactive)	3.81 µM (inactive)	9.48 µM (inactive)	2.37 µM (inactive)	15.5 µM (inactive)	3.08 µM (inactive)	6.05 µM (inactive)	17.1 µM (inactive)	16 µM (inactive)	12.4 µM (inactive)	11.1 µM (inactive)	15.2 µM (inactive)	> 10 µM (inactive)	2.37 µM (inactive)	–	15.1 µM (inactive)	6.04 µM (inactive)	12 µM (inactive)	9.93 µM (inactive)
O=C(Cc1nccc2c1[nH]c1ccccc12)OC1C#CCSCC#C/C=C\1 (stereo not drawn)	> 100 µM (inactive)	78.5 µM (inactive)	50 µM (inactive)	> 100 µM (inactive)	57.9 µM (inactive)	> 100 µM (inactive)	> 100 µM (inactive)	75.7 µM (inactive)	> 100 µM (inactive)	> 100 µM (inactive)	–	> 100 µM (inactive)	–	> 100 µM (inactive)	> 100 µM (inactive)	–	> 100 µM (inactive)	72.1 µM (inactive)	> 100 µM (inactive)	71.4 µM (inactive)
